According to patent publication US20070021303A1, “Safening method” (priority 2004, published 2007):

Columns and labels:
leek [1] = test: Seed treatment of leek with safener (seed coating with rotostat system), field, early post-emergence application of ioxynil; assay type: in vivo, allium porrum
Description: (§1) Leek (allium porrum var. Shelton) seeds were coated in a commercial seed coating machine. Gradually, binder solution with X g of mefenpyr-diethyl was added. Seeds were dried subsequently.
The differently-treated seeds were sown in the field using commercial sowing equipment. After 25 days, the seedlings were sprayed with a standard formulation of ioxynil (®Totril) at an application rate of 112 g a.i./ha ioxynil. At 15 days after spraying the number of collapsed seedlings was counted.

onion [2] = test: Post-emergence application of herbicide and safener by the tank mix method, onion; assay type: in vivo
From the text: (§2) Seeds of onion plants were sown in sandy loam soil in round plastic pots of a diameter of 7 cm and covered with a layer of sandy loam of a thickness of about 0.2 cm. The pots were placed in a greenhouse under favorable growth conditions for until the plants had reached the 2-leaves growth stage. Then, a herbicide or—in a parallel experiment—a tank-mix of the herbicide and a safener (using same basic formulation in each case) was applied to the green parts of the plants and the uncovered part of the soil surface with a spray bar using a water application rate of 300 liters per hectare.
(§3) The pots were placed in a greenhouse under favorable growth conditions. Visual scoring of the herbicidal action was carried out 21 or 40 days after treatment with the herbicide or the tank-mix, respectively. Evaluation was carried out on a percentage basis by comparison with untreated control plants (0%=no noticeable effect compared with the untreated plant, 100%=treated plant dies).

leek [3] = test: Post-emergence application of herbicide and safener by the tank mix method, leek; assay type: in vivo
From the text: as §2, with “leek” for “onion”
as §3

leek [4] = test: Seed treatment of leek with safener (encrustment method), early post-emergence application of ioxynil; assay type: in vivo, allium porrum
Description: Leek (allium porrum var. Parton) seeds were put in an erlenmeyer flask with a spinning stirring magnet. A droplet of binder (glue) was added and distributed evenly amongst the seeds. Subsequently, a small amount of encrustment powder (X % mefenpyr-diethyl+[100−X]% inert filler material) was added and mixed through the seeds using the stirring magnet. A droplet of binder was added again and this procedure was repeated until all encrustment powder was stuck to the seeds. Seeds were dried subsequently.
The differently-treated seeds were sown in trays. After 9 days, the seedlings were sprayed with 4.0 g/l ioxynil using an atomizer. A dosage of 3 ml per tray was applied, equalizing 1200 g.a.i./hectare. At 6 days after spraying the number of collapsed seedlings was counted.

onion [5] = test: Seed treatment of onion with safener (encrustment with rotostat), early post-emergence application of ioxynil; assay type: in vivo, Allium cepa; details: var. Brioso
Description: (§4) Onion (Allium cepa var. Brioso) seeds were encrusted in a commercial seed coating machine. Approximately 1 ml of binder was added. Subsequently, a small amount of encrustment powder (X % Naphthalic Anhydride+[100−X]% inert filler material) was added. Binder was added again and this procedure was repeated until all encrustment powder was stuck to the seeds. Seeds were dried subsequently.
(§5) The differently-treated seeds were sown in trays. After 9 days, the seedlings were sprayed with 1.0 g/l ioxynil using an atomizer. A dosage of 3 ml per tray was applied, equalizing 300 g.a.i./hectare. At 3 days after spraying the number of collapsed seedlings was counted.

leek [6] = test: Oxabetrinil safening ioxynil damage in leek (seed treatment); assay type: in vivo, allium porrum
leek [7] = test: Fluxofenim safening ioxynil damage in leek (seed treatment); assay type: in vivo, allium porrum
onion [8] = test: Mefenpyr safening oxyfluorfen damage in onion (seed treatment); assay type: in vivo, Allium cepa; details: variety Diamante, oxyfluorfen (Goal) 7.5 g a.i./ha 9 days after seeding
Description: as §4, §5
Onion (Allium cepa var. Diamante) were treated with safener, sown, treated with a herbicide and evaluated as described in Example 5 with the difference that the herbicide is oxyfluorfen and the safener is mefenpyr-diethyl.

onion [9] = test: Benoxacor safening bromoxynil damage in onion (seed treatment); assay type: in vivo, Allium cepa; details: variety Diamante; safener 0 g a.i./kg seed; bromoxynil-octanoate (Buctril) 25 g a.i./ha 10 days after seeding
Description: as §4
The differently-treated seeds were sown in trays. After 9 days, the seedlings were sprayed with 1.0 g/l ioxynil using an atomizer. A dosage of 3 ml per tray was applied, equalizing 300 g.a.i./hectare. […]
Onion (Allium cepa var. Diamante) were treated with safener, sown, treated with a herbicide and evaluated as described in Example 5 with the difference that the herbicide is bromoxynil-octanoate and the safener is benoxacor.

leek [10] = test: Mefenpyr safening Prometryn damage in leek (seed treatment); assay type: in vivo, allium porrum; details: prometryn (Gesagard) 750 g a.i./ha 10 days after seeding
Description: as §1
The differently-treated seeds were sown in the field using commercial sowing equipment. […]
Leek seeds (allium porrum, var. Shelton or Parton) were treated with safener, sown, treated with a herbicide and evaluated as described in Example 6 with the difference that the herbicide is prometryn.

`N#Cc1cc(I)c(O)c(I)c1` [H1, 4-hydroxy-3,5-di-iodobenzonitrile] was tested, and the “Damage to leek (in %) 15 DAT” value (leek [1]; in vivo) was 6%, the “Damage to onion (in %) variety Blanco Duro” value (onion [2]; in vivo) was 55% and the “Damage to onion (in %) variety Brioso” value (onion [2]; in vivo) was 45%. The “Damage to leek (in %) variety Harston” value (leek [3]; in vivo) was 40%, the “Damage to leek (in %) variety Kenton” value (leek [3]; in vivo) was 55% and the “Damage to leek (in %) 6 DAT” value (leek [4]; in vivo) was 52%. For the same compound, the “Damage to onion (in %) 3 DAT” value (onion [5]; no safener, ioxynil 300 g a.i./ha sprayed 9 days after seeding, collapsed seedlings 3 DAT) was 57%, the “Damage to seedling (% collapsed) at 7 DAT” value (leek [6]; in vivo) was 45% and the “Damage to seedling (% collapsed) at 5 DAT” value (leek [7]; in vivo) was 16%.

For `CON(C)C(=O)Nc1ccc(Cl)c(Cl)c1` [H2, linuron], the “Damage to onion (in %) variety Blanco Duro” value (onion [2]; variety Blanco Duro, 250 g a.i./ha, scoring 40 DAT) was 100%, the “Damage to onion (in %) variety Brioso” value (onion [2]; variety Brioso, 250 g a.i./ha, scoring 40 DAT) was 30% and the “Damage to leek (in %) variety Harston” value (leek [3]; variety Harston, 250 g a.i./ha, scoring 40 DAT) was 20%. The “Damage to leek (in %) variety Kenton” value (leek [3]; variety Kenton, 250 g a.i./ha, scoring 40 DAT) was 20%.

With `COC(=O)c1ccc(CNS(C)(=O)=O)cc1S(=O)(=O)NC(=O)Nc1nc(OC)cc(OC)n1` [H3, methyl 2-[3-(4,6-dimethoxypyrimidin-2-yl)ureidosulfonyl]-4-methanesulfonylaminomethylbenzoate] the “Damage to onion (in %) variety Blanco Duro” value (onion [2]; in vivo) was 70%, the “Damage to onion (in %) variety Brioso” value (onion [2]; in vivo) was 50% and the “Damage to leek (in %) variety Harston” value (leek [3]; variety Harston, 50 g a.i./ha, scoring 40 DAT) was 50%. The “Damage to leek (in %) variety Kenton” value (leek [3]; variety Kenton, 50 g a.i./ha, scoring 40 DAT) was 45%.

`COc1cc(OC)nc(NC(=O)NS(=O)(=O)c2cc(NC=O)ccc2C(=O)N(C)C)n1` [H4, N,N-dimethyl-2-[3-(4,6-dimethoxypyrimidin-2-yl)ureidosulfonyl]-4-formylaminobenzamide] was tested, and the “Damage to onion (in %) variety Blanco Duro” value (onion [2]; in vivo) was 10%, the “Damage to onion (in %) variety Brioso” value (onion [2]; in vivo) was 30% and the “Damage to leek (in %) variety Harston” value (leek [3]; in vivo) was 50%. The “Damage to leek (in %) variety Kenton” value (leek [3]; in vivo) was 50%.

For `CCOc1cc(Oc2ccc(C(F)(F)F)cc2Cl)ccc1[N+](=O)[O-]` [H6, oxyfluorfen], the “Damage to seedling (% collapsed) at 5 DAT” value (onion [8]; safener 0 g a.i./kg seed) was 83%.

In the case of `CCCCCCCC(=O)Oc1c(Br)cc(C#N)cc1Br` [H7, bromoxynil-octanoate], the “Damage to seedling (% collapsed) at 5 DAT” value (onion [9]) is reported as 19%.

In the case of `FC(F)(F)C(=NOCC1OCCO1)c1ccc(Cl)cc1` [fluxofenim, 1-(4-chlorophenyl)-2,2,2-trifluoro-1-ethanone O-(1,3-dioxolan-2-ylmethyl)oxime], the “Damage to seedling (% collapsed) at 5 DAT” value (leek [7]; variety Shelton, safener fluxofenim 1 g a.i./kg seed, ioxynil (Totril) 112 g a.i./ha 10 days after seeding) is reported as 10% and the “Damage to seedling (% collapsed) at 5 DAT” value (leek [7]; variety Shelton, safener fluxofenim 2 g a.i./kg seed, ioxynil (Totril) 112 g a.i./ha 10 days after seeding) is reported as 6%.

`CCOC(=O)C1=NN(c2ccc(Cl)cc2Cl)C(C)(C(=O)OCC)C1` (centres unmarked) [mefenpyr-diethyl, ethyl 1-(2,4-dichlorophenyl)-5-(ethoxycarbonyl)-5-methyl-2-pyrazoline-3-carboxylate] was tested, and the “Damage to leek (in %) 15 DAT” value (leek [1]; var. Shelton, field, ST3 = seed treatment 2.0 g a.i./kg mefenpyr-diethyl, ioxynil 112 g a.i./ha 25 days after seeding, 15 DAT) was “significantly reduced the amount of damage”, the “Damage to seedling (% collapsed) at 5 DAT” value (onion [8]; safener mefenpyr-diethyl 2 g a.i./kg seed) was 64% and the “Damage to seedling (% collapsed) at 5 DAT” value (onion [8]; safener mefenpyr-diethyl 4 g a.i./kg seed) was 49%. The “Damage to seedling (% collapsed) at 5 DAT” value (onion [8]; safener mefenpyr-diethyl 8 g a.i./kg seed) was 39%, the “Damage to seedling (% collapsed) at 6 DAT” value (leek [10]; variety Parton, safener mefenpyr-diethyl 1 g a.i./kg seed) was 3% and the “Damage to seedling (% collapsed) at 6 DAT” value (leek [10]; variety Parton, safener mefenpyr-diethyl 2 g a.i./kg seed) was 1%. The “Damage to seedling (% collapsed) at 6 DAT” value (leek [10]; variety Shelton, safener mefenpyr-diethyl 1 g a.i./kg seed) was 2%, the “Damage to seedling (% collapsed) at 6 DAT” value (leek [10]; variety Shelton, safener mefenpyr-diethyl 2 g a.i./kg seed) was 1% and the “damage (collapsed seedlings) versus control-treated seedlings” value (leek [4]; var. Parton, mefenpyr seed treatment, then ioxynil 1200 g a.i./ha, 6 days after application) was “significantly less damage”.

With `O=C1OC(=O)c2cccc3cccc1c23` [naphthalic anhydride, 1,8-naphthalenedicarboxylic anhydride] the “damage (collapsed seedlings) versus control-treated seedlings” value (onion [5]; naphthalic anhydride seed treatment, then ioxynil 300 g a.i./ha, after 3 days) was “significantly less damage”.

`N#C/C(=N\OCC1OCCO1)c1ccccc1` [oxabetrinil, (Z)-1,3-dioxolan-2-ylmethoxyimino(phenyl)-acetonitrile] was tested, and the “Damage to seedling (% collapsed) at 7 DAT” value (leek [6]; variety Shelton, safener oxabetrinil 1 g a.i./kg seed, ioxynil (Totril) 112 g a.i./ha 10 days after seeding) was 25%, the “Damage to seedling (% collapsed) at 7 DAT” value (leek [6]; variety Shelton, safener oxabetrinil 2 g a.i./kg seed, ioxynil (Totril) 112 g a.i./ha 10 days after seeding) was 27% and the “Damage to seedling (% collapsed) at 7 DAT” value (leek [6]; variety Shelton, safener oxabetrinil 4 g a.i./kg seed, ioxynil (Totril) 112 g a.i./ha 10 days after seeding) was 13%.
